Experimental findings from ChEMBL document CHEMBL1135413, “Arylamidrazones as novel corticotropin releasing factor receptor antagonists” (J Med Chem, 2002) are described below.

This experiment has as its target T1, Corticotropin-releasing factor receptor 1 (Homo sapiens, UniProt P34998).
T1 sequence (P34998 whole entry): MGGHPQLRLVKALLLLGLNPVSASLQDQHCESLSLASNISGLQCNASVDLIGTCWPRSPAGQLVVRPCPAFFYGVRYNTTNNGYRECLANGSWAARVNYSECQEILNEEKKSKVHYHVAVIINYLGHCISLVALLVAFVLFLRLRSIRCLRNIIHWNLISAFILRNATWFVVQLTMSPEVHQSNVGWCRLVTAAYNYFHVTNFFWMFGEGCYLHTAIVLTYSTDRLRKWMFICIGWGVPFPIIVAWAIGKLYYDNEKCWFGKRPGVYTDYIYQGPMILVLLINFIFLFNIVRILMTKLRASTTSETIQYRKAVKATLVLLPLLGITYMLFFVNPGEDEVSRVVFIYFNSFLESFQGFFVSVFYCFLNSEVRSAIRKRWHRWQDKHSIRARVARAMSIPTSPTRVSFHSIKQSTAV
Briefly: Binding affinity against human Corticotropin releasing factor receptor 1.
Regarding `CC(=O)C(=NNc1ccccc1Cl)Nc1cccc(Cl)c1`, the affinity, expressed as Ki, was 417 nM.

For the compound `COc1cccc(NC(=NNc2ccccc2C)C(C)=O)c1`, affinity was put at a Ki of 1400 nM. Against the preceding compound, the Ki is about 3.4-fold higher.

Regarding `CC(=O)/C(=N\c1ccccc1Cl)NNc1ccccc1C#N`, the Ki (commonly the dissociation constant of the complex between target and ligand, obtained from inhibition or displacement) was greater than 10000 nM.

In the case of `CC(=O)C(=NNc1ccccc1S(N)(=O)=O)Nc1cccc(Cl)c1`, the Ki is greater than 10000 nM.

Compound `CC(=O)C(=NNc1ccccc1C(F)(F)F)Nc1cccc(Cl)c1` gave a Ki of 538 nM.

As for `CC(=O)/C(=N\c1cccc(F)c1)NNc1ccccc1Cl`, the Ki came to 43 nM. This Ki lies about 13-fold lower than the previous one.

Turning to `CC(=O)C(=NNc1ccccc1C(F)(F)F)Nc1cccc(C(F)(F)F)c1`, the Ki was greater than 10000 nM.

With `C#Cc1cccc(/N=C(/NNc2ccccc2Cl)C(C)=O)c1`, the Ki worked out at 35 nM.

`CC(=O)/C(=N\c1cccc(C(F)(F)F)c1)NNc1ccccc1C` gave a Ki of 291 nM.

The compound `CC(=O)/C(=N\Nc1ccccc1Cl)N(C)c1cccc(Cl)c1` displayed a Ki greater than 10000 nM.

With `CC(=O)/C(=N\Nc1ccccc1C(F)(F)F)N(C)c1cccc(Cl)c1`, the Ki was greater than 10000 nM.

Regarding `CC(=O)/C(=N\c1ccc(Cl)cc1)NNc1ccccc1C`, the inhibition constant Ki was found to be 1830 nM.

As for `CC(=O)/C(=N\c1cccc(F)c1)NNc1ccccc1C(F)(F)F`, affinity was put at a Ki of 197 nM.

Regarding `CC(=O)/C(=N\Nc1ccccc1C#N)Nc1ccc(Cl)cc1`, the Ki turned out to be 2210 nM. This Ki is about 11-fold higher than that of the compound before.

In turn, `CC(=O)C(=NNc1ccccc1C#N)Nc1ccccc1` returned a Ki of 1080 nM.

For `CC(=O)/C(=N\Nc1ccccc1C)N(C)c1cccc(Cl)c1`, the inhibition constant (Ki) is greater than 10000 nM.

In the case of `CC(=O)/C(=N\Nc1ccccc1[N+](=O)[O-])Oc1cccc(Cl)c1`, the Ki is greater than 10000 nM.

Regarding `CC(=O)/C(=N\Nc1ccccc1)Nc1cccc(Cl)c1`, the affinity corresponds to a Ki of 2720 nM.

Consider `CC(=O)/C(=N\c1ccccc1)NNc1ccccc1C`, for which the Ki worked out at 526 nM.

As to `CC(=O)/C(=N\c1ccccc1)NNc1ccccc1C(F)(F)F`, the Ki turned out to be 2260 nM.

On to `CC(=O)C(=NNc1ccccc1C(F)(F)F)Nc1ccccc1Cl`, for which the Ki is greater than 10000 nM.

As to `CC(=O)/C(=N\Nc1ccccc1C#N)N(C)c1cccc(Cl)c1`, the Ki was greater than 10000 nM.

Compound `C#Cc1cccc(/N=C(/NNc2ccccc2C)C(C)=O)c1` displayed a Ki of 62 nM. In other words, the double-digit nanomolar range.

In turn, `CC(=O)/C(=N\c1ccc(Cl)cc1)NNc1ccccc1C(F)(F)F` showed a Ki greater than 10000 nM.

For the compound `CSc1cccc(N/C(=N/Nc2ccccc2C(F)(F)F)C(C)=O)c1`, the Ki is greater than 10000 nM.

The compound `CC(=O)C(=NNc1ccccc1C(F)(F)F)Nc1cccc(C#N)c1` displayed a Ki greater than 10000 nM.

`CC(=O)C(=NNc1ccccc1)Nc1ccccc1` had a Ki of 6230 nM.

Turning to `CC(=O)/C(=N\c1ccccc1Cl)NNc1ccccc1`, the Ki is greater than 10000 nM.

With `COc1cccc(NC(=NNc2ccccc2)C(C)=O)c1`, the Ki is greater than 10000 nM.

Turning to `CC(=O)/C(=N\c1cccc(C)c1)NNc1ccccc1Cl`, the affinity, expressed as Ki, was 115 nM.

For `CC(=O)C(=NNc1ccccc1[N+](=O)[O-])Nc1cccc(Cl)c1`, the Ki amounted to 51 nM. This Ki is about 2.3-fold lower than that of the compound before.

The compound `CC(=O)/C(=N\Nc1ccccc1C)Sc1cccc(Cl)c1` yielded a Ki greater than 10000 nM.

Regarding `CC(=O)C(=NNc1ccccc1S(C)(=O)=O)Nc1cccc(Cl)c1`, the Ki is greater than 10000 nM.

`CSc1cccc(N/C(=N/Nc2ccccc2C)C(C)=O)c1` showed an inhibitory constant (Ki) greater than 10000 nM.

With `CCOc1cccc(N/C(=N/Nc2ccccc2C)C(C)=O)c1`, the Ki was greater than 10000 nM.

`CC(=O)/C(=N\c1cccc(C)c1)NNc1ccccc1C` had a Ki of 526 nM.

The compound `C#Cc1cccc(NC(=NNc2ccccc2C(F)(F)F)C(C)=O)c1` gave a Ki of 66 nM.

Turning to `CC(=O)/C(=N\Nc1ccccc1C#N)Nc1cccc(Cl)c1`, the Ki came out at 415 nM.

`CC(=O)/C(=N\Nc1ccccc1)N(C)c1cccc(Cl)c1`: the inhibition constant Ki was greater than 10000 nM.

Compound `CC(=O)/C(=N\Nc1ccccc1Cl)Sc1cccc(Cl)c1` registered a Ki greater than 10000 nM.

With `CSc1cccc(N/C(=N/Nc2ccccc2Cl)C(C)=O)c1`, the Ki is greater than 10000 nM.

In turn, `CC(=O)/C(=N\Nc1ccccc1C)Oc1cccc(Cl)c1` showed a Ki greater than 10000 nM.

As for `CC(=O)/C(=N\c1cccc(F)c1)NNc1ccccc1C`, affinity was put at a Ki of 43 nM.

`CC(=O)/C(=N\Nc1ccccc1)Oc1cccc(Cl)c1`: the Ki is greater than 10000 nM.

In turn, `CCOc1cccc(NC(=NNc2ccccc2C(F)(F)F)C(C)=O)c1` came in with a Ki greater than 10000 nM.

`COc1cccc(N/C(=N/Nc2ccccc2C(F)(F)F)C(C)=O)c1` gave a Ki of 6950 nM.

As for `CC(=O)/C(=N\Nc1ccccc1C(F)(F)F)Oc1cccc(Cl)c1`, the Ki was greater than 10000 nM.

`CCOc1cccc(NC(=NNc2ccccc2Cl)C(C)=O)c1` yielded a Ki greater than 10000 nM.

In turn, `CC(=O)/C(=N\c1ccccc1Cl)NNc1ccccc1C` came in with a Ki greater than 10000 nM.

Turning to `CC(=O)/C(=N\c1ccccc1Cl)NNc1ccccc1Cl`, the Ki was greater than 10000 nM.

`CC(=O)/C(=N\c1ccccc1)NNc1ccccc1Cl` gave a Ki of 299 nM.

In turn, `COc1cccc(N/C(=N/Nc2ccccc2Cl)C(C)=O)c1` yielded a Ki of 652 nM.

In turn, `CC(=O)/C(=N\c1cccc(C#N)c1)NNc1ccccc1C` yielded a Ki greater than 10000 nM.

Regarding `CC(=O)/C(=N\c1cccc(Cl)c1)NNc1ccc(Br)cc1`, the Ki is 1460 nM.

The compound `CC(=O)/C(=N\Nc1ccccc1C#N)Oc1cccc(C)c1` gave a Ki of 650 nM.

`CC(=O)/C(=N\c1ccc(Cl)cc1)NNc1ccccc1` yielded a Ki greater than 10000 nM.
